Data taken from US10144929B2, “Polypeptide inhibitors of Smad3 polypeptide activities” (Mayo Foundation for Medical Education and Research, priority 2016, dated 2018).

Tests used:
AKR-2B cells = assay: Smad3-regulated biological responses: scratch assays and soft agar colony formation; type: cell-based; details: FIGS. 4C and 4D: scratch assay (5 ng/mL TGFβ, 24 hours) and soft agar
Protocol: FIGS. 4A-E. A point mutant of TAT-SH3-2 abolishes the inhibitory action on Smad3 responses. (A) Schematic depicting TAT-SNX9(SH3) fusion polypeptide constructs (Left). * in SH3-2M (mutant) reflects G to V mutations at amino acids 36-38. His pull down of pSmad3 bound to TAT-SNX9(SH3) fusion polypeptides was performed as in FIG. 3A (Middle). AKR-2B cells were transduced for 90 minutes with 1.5 μM of TAT-SH3-2, TAT-SH3-2M, or TAT-LC. Western analysis was performed for the indicated proteins following 24 hour treatment in the absence (−) or presence (+) of TGFβ (5 ng/mL) or SB431542 (10 μM) (Right). (B) qPCR of Smad3 (CTGF and Smad7) and Smad2 (Goosecoid and MixL) responsive genes as in FIG. 3D. Data reflect mean+/−sd from three experiments. […] (E) AKR-2B cells were transiently transfected with a BMP (BRE), EGF (SRE), or PDGF (MMP-1) reporter construct and luciferase activity determined following 12 hour incubation in the absence (−) or presence (+) of the indicated ligand (10 ng/mL BMP4, EGF, or PDGF), inhibitor (10 μM Dorsomophin; 3 μM Lapatinib; 2 μM CP868) or TAT-SNX9(SH3) fusion polypeptide (1.5 μM). […]
Soft agar assays were performed as described elsewhere (Rahimi et al., Cancer Res., 69(1):84-93 (2009)). […] Following 7 days growth at 37° C., the number of colonies>100 μm in diameter were counted using an Optronix Gelcount™ (Oxford Optronics, Milton, Abingdon, UK). […]

[1] = test system: Smad2 targets (MMP2, Goosecoid, Furin, MixL); assay: RT-PCR/qPCR of Smad2 responsive genes in AKR-2B cells; type: cell-based; details: 5 ng/mL TGFβ, 24 hours
Protocol: FIGS. 2A-C. TAT-SH3 inhibits Smad3-dependent responses. (A) AKR-2B cells were transiently transfected with a Smad3 (3TP), Smad2 (ARE), or Smad1/5/8 (BRE) reporter construct, and luciferase activity determined following 12 hours incubation in the absence (−) or presence (+) of the indicated ligand (5 ng/mL TGFβ; 10 ng/mL BMP4) or TAT-SNX9(SH3) fusion polypeptide (1.5 μM). Data represent the mean+/−SEM of three experiments. (B) RT-PCR analysis of Smad3 (PAI-1 and CTGF) and Smad2 (MMP2) responsive gene following 24 hour treatment of AKR-2B cells with the indicated concentration of TAT-SNX9(SH3) fusion polypeptide or 5 ng/mL TGFβ. Loading was verified by GAPDH expression. (C) Soft agar colony formation was performed following seven days growth in the presence (+) or absence (−) of TGFβ (10 ng/mL) or the indicated TAT-SNX9(SH3) fusion polypeptide (1.5 μM). […]
FIGS. 3A-E. Inhibition of Smad3 signaling by a defined region of the SH3 domain in SNX9. […] (B) Nuclear fractions were prepared and assessed as in FIG. 1B following transduction with the indicated TAT-SNX9(SH3) fusion polypeptide (Left). Quantitation (mean+/−sd) of nuclear pSmad2 or pSmad3 from 2 experiments (Right). (C) Immunofluorescence of nuclear Smad3 was determined as in FIG. 1C from 30 cells in each of two experiments in the absence (−) or presence (+) of 5 ng/mL TGFβ and the indicated TAT-SNX9(SH3) fusion polypeptide (1.5 μM). […]

Row | Substance | Smad3-regulated biological responses (AKR-2B cells) | induction of Smad2 targets [1]
1 | TAT-SH3-2: TAT-SNX9(SH3) fusion polypeptide having SNX9 amino acids 21-51 (31 mer) (TVNEGEIITITNPDVGGGWLEGRNIKGERGL; left off: small tags and cut ends) | inhibitory | Neither polypeptide impacted the induction of Smad2 targets
2 | TAT-SH3-2M: TAT-SH3-2 with G to V point mutations at amino acids 36-38; inactive TAT-SNX9 peptide unable to bind pSmad3 (TVNEGEIITITNPDVVVVWLEGRNIKGERGL; left off: small tags and cut ends) | not inhibitory | Neither polypeptide impacted the induction of Smad2 targets
